Assay results reported in patent publication US11345711B2, “8,9-dihydroimidazo[1,2-a]pyrimido[5,4-e]pyrimidin-5(6H)-ones” (IMPACT THERAPEUTICS (SHANGHAI), INC, priority 2016, dated 2022).

Legend:
[1] = target: Wee1 (h) (Homo sapiens, UniProt P30291); test: Wee1 kinase (h) detection method, [γ-33P]-ATP filter assay; format: biochemical
Method: Determination of the inhibitory effect of 6-(2-chlorophenyl)-2-((4-(4-methylpiperazin-1-yl)phenyl)amino)-8,9-dihydroimidazo[1,2-a]pyrimido[5,4-e]pyrimidin-5(6H)-one and Analogs on the Enzyme Activity of Wee1 Kinase by Using the Wee1 Kinase (h) Detection Method
Then the stock solution of all compounds under test with 50× concentration in 100% DMSO was added to make the final concentration of 10/1/0.1/0.01 μM, and then mixed the mixture well. The reaction is initiated by the addition of the Mg/ATP mix. After incubation for 40 minutes at room temperature, the reaction is stopped by the addition of phosphoric acid to a concentration of 0.5%. […] Each compound sample is duplicated in duplicate. The negative control was lack of all the components of Wee1 enzyme, and the positive was addition of 30% phosphoric acid to terminate the reaction. The Wee1 inhibitor AZD1775 was detected at 10 μM at the same experiment condition.

[2] = test system: LoVo cells; test: MTT based cell viability assay on LoVo cells; settings: Homo sapiens, LoVo, 72 h, 3 d, read-out: IC50, growth inhibition of LoVo cells
Method: Determination of the cell growth inhibiting activity of 6-(2-chlorophenyl)-2-((4-(4-methylpiperazin-1-yl)phenyl)amino)-8,9-dihydroimidazo[1,2-a]pyrimido[5,4-e]pyrimidin-5(6H)-one and analogs on LoVo cells using a MTT based cell viability assay
(§1) The thawed LoVo cells were cultured and passaged to the third generation, and the growth state was good and the confluence was about 90%, which began to be used in the experiment. The LoVo cells were digested with trypsin, centrifuged at 800 rpm for 5 min, the supernatant was discarded, resuspended with fresh culture medium, and counted. 6000 Cells are seeded to each well of a 96-well plate. The cells are incubated at 37° C. in a 5% CO2 cell culture incubator overnight. The tested sample (including the tested compound and the reference compound AZD1775) was diluted continuously to 8 concentrations (the last concentration was negative control of DMSO) with a 1:3 and 1:10 dilution in DMSO respectively: 10 μM, 3.3 μM, 1 μM, 0.33 μM, 0.1 μM, 0.033 μM, 0.01 μM, 0 μM (the final concentration of DMSO was 1%). 5 μL of each concentration was added to 120 μL of culture medium (25 times diluted), and the mixture was shaken well. The overnight cells were taken and the culture medium was removed, 195 μL of fresh culture medium was added to each well, and 5 μL of diluted culture medium containing the corresponding concentration of the tested sample was added respectively, and the culture plate was then placed in the 5% CO2 cell culture incubator at 37° C. for 3 d. After removing the original solution and adding 100 μL of fresh serum-free DMEM culture medium containing MTT (0.5 mg/mL) per well, the culture was continued. The original solution was removed after 4 hrs and 100 μl DMSO was added to each well. The 96-well cell culture plates were shaken away from light for 10 min and readed in a multifunctional reader at 552/630/690 nm to give absorption values (OD values). The data were analyzed using a commercial graphic software (Graph Pad Prism 5.0) and the inhibitory activity of the compound on cell proliferation was plotted in terms of cell survival and compound concentration. The IC50 values were fitted by the S-shaped dose-response curve equation as follows: Y=100/(1+10^(Log C-Log IC50)), where C was the concentration of testing compounds.

[3] = test system: NCI-H1299 cells; test: MTT based cell viability assay on NCI-H1299 cells; settings: Homo sapiens, NCI-H1299 cells, read-out: IC50, growth inhibition of NCI-H1299 cells
Method: Determination of the cell growth inhibiting activity of 6-(2-chlorophenyl)-2-((4-(4-methylpiperazin-1-yl)phenyl)amino)-8,9-dihydroimidazo[1,2-a]pyrimido[5,4-e]pyrimidin-5(6H)-one and analogs on NCI-H1299 cells using a MTT based cell viability assay
as §1, with “NCI-H1299” for “LoVo”, “group,” for “medium,”, “1000” for “6000”, “1‰).” for “1%).”, “C−Log” for “C-Log”

Sequence of Wee1 (h) (P30291 whole entry): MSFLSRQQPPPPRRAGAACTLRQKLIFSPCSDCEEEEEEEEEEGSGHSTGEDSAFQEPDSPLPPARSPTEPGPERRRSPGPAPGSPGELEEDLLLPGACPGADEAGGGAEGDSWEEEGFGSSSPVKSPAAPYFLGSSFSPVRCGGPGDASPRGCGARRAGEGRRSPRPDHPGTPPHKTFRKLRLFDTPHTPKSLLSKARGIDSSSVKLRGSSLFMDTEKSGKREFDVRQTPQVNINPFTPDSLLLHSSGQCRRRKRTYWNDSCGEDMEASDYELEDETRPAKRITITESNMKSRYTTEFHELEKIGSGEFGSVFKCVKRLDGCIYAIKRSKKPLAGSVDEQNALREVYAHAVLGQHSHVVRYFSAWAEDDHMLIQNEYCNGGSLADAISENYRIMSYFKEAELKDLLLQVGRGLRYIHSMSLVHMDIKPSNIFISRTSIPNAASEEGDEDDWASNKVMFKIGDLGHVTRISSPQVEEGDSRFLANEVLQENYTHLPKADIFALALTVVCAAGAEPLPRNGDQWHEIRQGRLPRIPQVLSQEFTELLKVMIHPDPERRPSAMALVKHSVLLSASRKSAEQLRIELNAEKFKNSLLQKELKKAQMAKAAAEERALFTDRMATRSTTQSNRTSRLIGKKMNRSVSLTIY

For `CN1CCN(c2ccc(Nc3ncc4c(n3)N3C(=NCC3(C)C)N(c3c(F)cccc3Cl)C4=O)cc2)CC1` [Example 28, 6-(2-Chloro-6-fluorophenyl)-9,9-dimethyl-2-((4-(4-methylpiperazin-1-yl)phenyl)amino)-8,9-dihydroimidazo[1,2-a]pyrimido[5,4-e]pyrimidin-5(6H)-one], the “Inh. (%) of Wee1 kinase enzyme activity” value ([1]; C 1 μm compound) was 67%, the IC50 [2] was greater than 1 µM and the IC50 [3] was greater than 3 µM.

For `C[C@@H]1CN(c2ccc(Nc3ncc4c(n3)N3CCN=C3N(c3c(F)cccc3Cl)C4=O)cc2)C[C@H](C)O1` [Example 32, 6-(2-Chloro-6-fluorophenyl)-2-((4-((2S,6R)-2,6-dimethylmorpholino)phenyl)amino)-8,9-dihydroimidazo[1,2-a]pyrimido[5,4-e]pyrimidin-5(6H)-one], the “Inh. (%) of Wee1 kinase enzyme activity” value ([1]; C 0.01 μm compound) was 19%, the “Inh. (%) of Wee1 kinase enzyme activity” value ([1]; C 0.1 μm compound) was 69% and the “Inh. (%) of Wee1 kinase enzyme activity” value ([1]; C 1 μm compound) was 94%. The IC50 [2] was 0.836 µM and the IC50 [3] was greater than 10 µM.

`O=C1c2cnc(Nc3ccc(CN4CCOCC4)cc3)nc2N2CCN=C2N1c1c(F)cccc1Cl` [Example 33, 6-(2-Chloro-6-fluorophenyl)-2-((4-(morpholinomethyl)phenyl)amino)-8,9-dihydroimidazo[1,2-a]pyrimido[5,4-e]pyrimidin-5(6H)-one] was tested, and the “Inh. (%) of Wee1 kinase enzyme activity” value ([1]; C 1 μm compound) was 87%, the IC50 [2] was greater than 100 µM and the IC50 [3] was greater than 10 µM.

With `C[C@@H]1CN(c2ccc(Nc3ncc4c(n3)N3CCN=C3N(c3c(F)cccc3Cl)C4=O)cc2)C[C@H](C)N1C` [Example 34, 6-(2-Chloro-6-fluorophenyl)-2-((4-((3S,5R)-3,4,5-trimethylpiperazin-1-yl)phenyl)amino)-8,9-dihydroimidazo[1,2-a]pyrimido[5,4-e]pyrimidin-5(6H)-one] the “Inh. (%) of Wee1 kinase enzyme activity” value ([1]; C 0.01 μm compound) was 38%, the “Inh. (%) of Wee1 kinase enzyme activity” value ([1]; C 0.1 μm compound) was 93% and the “Inh. (%) of Wee1 kinase enzyme activity” value ([1]; C 1 μm compound) was 97%. The IC50 [2] was 0.349 µM and the IC50 [3] was 0.468 µM.

With `CC(C)N1[C@H](C)CN(c2ccc(Nc3ncc4c(n3)N3CCN=C3N(c3c(F)cccc3Cl)C4=O)cc2)C[C@@H]1C` [Example 35, 6-(2-Chloro-6-fluorophenyl)-2-((4-((3S,5R)-4-isopropyl-3,5-dimethylpiperazin-1-yl)phenyl)amino)-8,9-dihydroimidazo[1,2-a]pyrimido[5,4-e]pyrimidin-5(6H)-one] the “Inh. (%) of Wee1 kinase enzyme activity” value ([1]; C 0.01 μm compound) was 27%, the “Inh. (%) of Wee1 kinase enzyme activity” value ([1]; C 0.1 μm compound) was 82% and the “Inh. (%) of Wee1 kinase enzyme activity” value ([1]; C 1 μm compound) was 100%. For the same molecule, the IC50 [2] was 0.262 µM and the IC50 [3] was 0.287 µM.

In the case of `CN1CCN(c2ccc(Nc3ncc4c(n3)N3CCN=C3N(c3c(F)cccc3Cl)C4=O)c(F)c2)CC1` [Example 36, 6-(2-Chloro-6-fluorophenyl)-2-((2-fluoro-4-(4-methylpiperazin-1-yl)phenyl)amino)-8,9-dihydroimidazo[1,2-a]pyrimido[5,4-e]pyrimidin-5(6H)-one], the “Inh. (%) of Wee1 kinase enzyme activity” value ([1]; C 1 μm compound) is reported as 0%, the IC50 [2] is reported as greater than 100 µM and the IC50 [3] is reported as greater than 10 µM.

For `C[C@@H]1CN(c2ccc(Nc3ncc4c(n3)N3CCN=C3N(c3c(F)cccc3Cl)C4=O)c(F)c2)C[C@H](C)N1C` [Example 37, 6-(2-Chloro-6-fluorophenyl)-2-((2-fluoro-4-((3S,5R)-3,4,5-trimethylpiperazin-1-yl)phenyl)amino)-8,9-dihydroimidazo[1,2-a]pyrimido[5,4-e]pyrimidin-5(6H)-one], the “Inh. (%) of Wee1 kinase enzyme activity” value ([1]; C 1 μm compound) was 1%, the IC50 [2] was greater than 100 µM and the IC50 [3] was greater than 10 µM.

`CN1CCN(c2ccc(Nc3ncc4c(n3)N3CCN=C3N(c3c(F)cccc3Cl)C4=O)c(Cl)c2)CC1` [Example 38, 6-(2-Chloro-6-fluorophenyl)-2-((2-chloro-4-(4-methylpiperazin-1-yl)phenyl)amino)-8,9-dihydroimidazo[1,2-a]pyrimido[5,4-e]pyrimidin-5(6H)-one] was tested, and the “Inh. (%) of Wee1 kinase enzyme activity” value ([1]; C 1 μm compound) was 34%, the IC50 [2] was greater than 100 µM and the IC50 [3] was greater than 10 µM.

`C[C@@H]1CN(c2ccc(Nc3ncc4c(n3)N3CCN=C3N(c3c(F)cccc3Cl)C4=O)c(Cl)c2)C[C@H](C)N1C` [Example 39, 6-(2-Chloro-6-fluorophenyl)-2-((2-chloro-4-((3S,5R)-3,4,5-trimethylpiperazin-1-yl)phenyl)amino)-8,9-dihydroimidazo[1,2-a]pyrimido[5,4-e]pyrimidin-5(6H)-one] was tested, and the “Inh. (%) of Wee1 kinase enzyme activity” value ([1]; C 1 μm compound) was 28%, the IC50 [2] was greater than 100 µM and the IC50 [3] was greater than 10 µM.

For `CN1CCN(c2ccc(Nc3ncc4c(n3)N3CCN=C3N(c3c(F)cccc3Cl)C4=O)c(C(F)(F)F)c2)CC1` [Example 40, 6-(2-Chloro-6-fluorophenyl)-2-((4-(4-methylpiperazin-1-yl)-2-(trifluoromethyl)phenyl)amino)-8,9-dihydroimidazo[1,2-a]pyrimido[5,4-e]pyrimidin-5(6H)-one], the “Inh. (%) of Wee1 kinase enzyme activity” value ([1]; C 1 μm compound) was 4%, the IC50 [2] was greater than 100 µM and the IC50 [3] was greater than 10 µM.

For `C[C@@H]1CN(c2ccc(Nc3ncc4c(n3)N3CCN=C3N(c3c(F)cccc3Cl)C4=O)c(C(F)(F)F)c2)C[C@H](C)N1C` [Example 41, 6-(2-Chloro-6-fluorophenyl)-2-((2-trifluoromethyl-4-((3S,5R)-3,4,5-trimethylpiperazin-1-yl)phenyl)amino)-8,9-dihydroimidazo[1,2-a]pyrimido[5,4-e]pyrimidin-5(6H)-one], the “Inh. (%) of Wee1 kinase enzyme activity” value ([1]; C 1 μm compound) was 2%, the IC50 [2] was greater than 100 µM and the IC50 [3] was greater than 10 µM.

In the case of `Cc1cc(N2CCN(C)CC2)ccc1Nc1ncc2c(n1)N1CCN=C1N(c1c(F)cccc1Cl)C2=O` [Example 42, 6-(2-Chloro-6-fluorophenyl)-2-((2-methyl-4-(4-methylpiperazin-1-yl)phenyl)amino)-8,9-dihydroimidazo[1,2-a]pyrimido[5,4-e]pyrimidin-5(6H)-one], the “Inh. (%) of Wee1 kinase enzyme activity” value ([1]; C 1 μm compound) is reported as 19%, the IC50 [2] is reported as greater than 100 µM and the IC50 [3] is reported as greater than 10 µM.

With `Cc1cc(N2C[C@@H](C)N(C)[C@@H](C)C2)ccc1Nc1ncc2c(n1)N1CCN=C1N(c1c(F)cccc1Cl)C2=O` [Example 43, 6-(2-Chloro-6-fluorophenyl)-2-((2-methyl-4-((3S,5R)-3,4,5-trimethylpiperazin-1-yl)phenyl)amino)-8,9-dihydroimidazo[1,2-a]pyrimido[5,4-e]pyrimidin-5(6H)-one] the “Inh. (%) of Wee1 kinase enzyme activity” value ([1]; C 1 μm compound) was 27%, the IC50 [2] was greater than 100 µM and the IC50 [3] was greater than 10 µM.
